Results taken from patent US20160017048A1, “TARGETING CD138 IN CANCER” (priority 2013, published 2016).

Assays:
iC9 suicide gene [1] = assay: in vivo elimination of hCAR.CD138 T cells by AP1903 in patients; design: species or system human; conditions: within 3 hours of AP1903 administration
From the text: Persistence and expansion of transferred T cells are estimated using immunophenotype and real-time quantitative PCR assay (Q-PCR) in DNA extracted from PB collected at different time points after T-cell infusions. BM samples are collected at week 6 as part of the clinical evaluation of these patients. Plasma samples are collected and snap frozen at intervals to detect IL-2, IL6, IFNγ and TNFα released by T cells in vivo. One can also seek clinical evidence of antitumor activity by monitoring paraprotein levels and PC BM infiltration at 6, 12 and 24 weeks, for example. Patients are closely monitored for the occurrence of toxicity according to NCI criteria. In the case of grade III-IV toxicity, patients are treated with AP1903 to activate the iC9 gene as previously reported. The iC9 effects are quantified by measuring the loss of CAR+ circulating cells and by changes in the iC9 transgene by QPCR.
The molecular signal of the CAR (which is hypoxia independent) is detected both in PB and BM samples by week 6, even though there may be higher signal in the BM because of the accumulation of CAR T cells. The expression of the CAR by flow cytometry in T cells (which is hypoxia dependent, as it detects protein synthesis) is anticipated to be much higher in BM as compared to PB because MM BM is hypoxic. […]

iC9 suicide gene [2] = assay: in vitro elimination of transduced T cells by AP1903 activation of iC9; type: cell-based; conditions: within 24 hrs of in vitro exposure to AP1903 (20-50 nM)
Method: A stable producer line with a titer >10^6 per mL may be developed. The T-cell transduction efficiency may range from 30% to 40% in hypoxia (FIG. 3). Redirected T cells can eliminate CD138+ targets in coculture experiments in hypoxia and can be rapidly eliminated (>90% of transduced cells) within 24 hrs of in vitro exposure to AP1903 (20-50 nM), the small molecule dimerizer that activates the iC9 suicide gene.

## CC[C@H](C(=O)N1CCCC[C@H]1C(=O)O[C@H](CCc1ccc(OC)c(OC)c1)c1cccc(OCC(=O)NCCNC(=O)COc2cccc([C@@H](CCc3ccc(OC)c(OC)c3)OC(=O)[C@@H]3CCCCN3C(=O)[C@@H](CC)c3cc(OC)c(OC)c(OC)c3)c2)c1)c1cc(OC)c(OC)c(OC)c1 [AP1903]
iC9 suicide gene [1]
  hCAR.CD138T eliminated: > 90%
iC9 suicide gene [2]
  transduced cells eliminated: > 90%
